Entries after “also recorded” stand apart in the source; their conditions may differ.
Assays:
[1] = Pharmacokinetics of triphosphate PSI-7409 in rat liver after peroral administration; type: in vivo, Sprague Dawley rats; details: comparison of Cmax and AUC24h in rat liver
Description: The tested composition was administered at a dose of 50 mg/kg. To this end, compositions were prepared with a concentration of prodrug 1.1 or Sovaldi® of 5.0 mg/ml in a 0.5% solution of hydroxypropyl methylcellulose (HPMC), to which 5% ethanol was added, as follows: to a weighed portion of the prodrug of formula 1.1 or Sovaldi®, an appropriate amount of HPMC was added, and the mixture was triturated dry in a mortar, whereafter a proper quantity of 5% ethanol in distilled water was gradually added portionwise, and the mixture was carefully stirred to obtain a suspension suitable for intragastric administration.
The study was carried out on Sprague Dawley rats. The rats were divided into groups of 6 based on selected time points (1, 2, 4, 6, 8, 10, 12, 16, and 24 h). The rats were weighed, and the volume of compositions comprising the prodrug of formula 1.1 or Sovaldi® was calculated for each animal at a rate of 10 ml/kg. Compositions comprising the prodrug of formula 1.1 or Sovaldi® were administered intragastrically through a feeding tube. […]
Samples were analyzed using an HPLC-MS/MS technique, wherein the HPLC system Agilent 1290 Infinity II was combined with the AB Sciex QTrap 5500 mass spectrometer. […] PSI-7409 and H027-4261 were recorded in MRM mode with ion transitions of 499/159 and 410/150, respectively. […]

[2] = test system: gT1b NS5B HCV; assay: Anti-HCV activity in Huh7 cell line stably transfected with an HCV replicon; type: cell-based, hepatitis C virus (HCV) genotype 1b
Description: Evaluation of anti-HCV activity and cytotoxicity for compositions comprising the prodrug of formula 1.1 and Sovaldi®. The antiviral activity of tested compositions comprising the prodrug was evaluated using an Huh7 human hepatocellular carcinoma cell line stably transfected with an HCV replicon. A cell suspension in a complete culture medium (DMEM 1×, Cellgro; cat. #10-013-CV) was transferred into 96-well plates (50 μl per well) with a final density of 7500 cells per well. The serial dilutions of tested prodrugs were prepared from a fresh 200-fold generic solution in DMSO with 11 concentration points and 3-fold dilution for each step starting from 20 nM in a complete medium and were used as 2-fold solutions in two replicates. Minimum 4 hours after planting the cells, 50 μl of serial prodrug dilutions was added to each well. The final prodrug concentration varied from 10 nM to 0.1 pM and that of DMSO, 0.5%. The plate with cells was incubated for 3 days at 37° C. under humidified 5% CO2. Upon completion of incubation, the medium was removed by turning the plate over and shaking it carefully. The cells were fixed for one minute with 100 μl of a 1:1 acetone:methanol solution, washed 3 times with a phosphate buffer (PBS), and blocked for 1 h at room temperature using a 10% fetal bovine serum (FBS) in PBS (150 μl/well). The cells were washed 3 times with PBS and incubated for 2 h at 37° C. with anti-NS5B HCV antibodies (100 μl/well) using Affinity BioReagents (cat. # MA1-080) and diluting the generic solution (1 mg/ml) in a ratio of 1:4000 in 10% FBS-PBS. The cells were washed 3 times with PBS and developed by an OPD solution (100 μl/well) using for each plate one OPD tablet dissolved in a citrate/phosphate buffer (12 ml)), whereto 5 μl of 30% H2O2 was added, for 30 minutes in the dark at room temperature. The reaction was stopped by 2N H2SO4 (100 μl/well), and OD490 was measured using the multifunctional reader Victor^3 V 1420 (Perkin Elmer). The values of EC50 for tested prodrugs were measured from an activity curve plotted using the GraphPad Prizm software.

[3] = Stability in human liver S9 fraction; type: in vitro ADME
Description: Proteins were deposited on ice for 15 min. The samples were then centrifuged for 10 min at 3000 rpm, and the supernatant (150 μl) was sampled for analysis.
Tolbutamide (Fluka) was used as the internal standard.

[4] = Hepatitis C virus, Huh-7, gT1b HCV replicon in Huh7, 10% FBS

SMILES: C[C@H](N[P@](=O)(OC[C@H]1O[C@@H](n2ccc(=O)[nH]c2=O)[C@](C)(F)[C@@H]1O)Oc1ccccc1)C(=O)OC1CCC1 [Prodrug 1.1, cyclobutyl (S)-2-{(S)-[(2R,3R,4R,5R)-5-(3,4-dihydro-2,4-dioxo-2H-pyrimidin-1-yl)-3-hydroxy-4-methyl-4-fluoro-tetrahydro-furan-2-ylmethoxy]-phenoxy-phosphorylamino}-propanoate]
- effectiveness of liver metabolism into triphosphate PSI-7409 relative to Sovaldi [1]: almost twice more effective; also recorded: almost two times more effectively
- EC50 [2, 4]: 15 to 27 nM
- EC90 [2, 4]: 128 nM
- activity against gT1b HCV relative to Sovaldi ([2]; comparison of EC50/EC90): more than three times more active
- half-life at 1 μM ([3]; pH 7.4, human liver S9 fraction 1 mg/ml protein, 37° C., 1 μM, read-out: T1/2 Human S9 (converted)): 3 min
- metabolic rate in human liver microsomal S9 fraction relative to Sovaldi (faster) ([3]; ratio of T1/2 in human S9): 11 times
